Laboratory results: article PMC6796924 (ACS Omega, 2019)
Values joined by “and” are separate entries in the source; they are usually repeats but may differ in a detail not shown here. Equal values may be shown once.

Assays:
[1] = In vitro BBB permeability, BBB Kit; assay type: in vitro ADME; conditions: Wistar, rat
[2] = pH 6.8; cited from earlier work
[3] = Solubility studies of K-604 in different vehicles; assay type: physicochemical
[4] = PK study after intranasal administration; assay type: in vivo, mice; conditions: for concentration at 5 min / concentration at 15 min / concentration at 30 min / concentration at 45 min: other: intranasal, drug concentration in plasma; for Tmax at 7 days / Cmax at 7 days: 32.4 ug; for AUC(0-t): AUC0–t; for half-life: T1/2, plasma
[5] = PK study after oral administration; assay type: in vivo, mice
[6] = 0.01 N HCl solution, 32.4 μg/mouse intranasal vs oral 166 μg/mouse, cerebrum
[7] = CA solution, 108 μg/mouse intranasal vs oral 166 μg/mouse, cerebrum
[8] = GA solution, 108 μg/mouse intranasal vs oral 166 μg/mouse, cerebrum
[9] = HA solution, 108 μg/mouse intranasal vs oral 166 μg/mouse, cerebrum
[10] = female, Crl:CDI (ICR), mouse, plasma, 32.4 μg, repeated intranasal, 0.01 N HCl solution, 10 μL, mice
[11] = female, Crl:CDI (ICR), mouse, plasma, 162 μg, repeated (7 days) intranasal, 0.01 N HCl solution, 50 μL, mice
[12] = female, ICR, mouse, plasma, inhaled or intranasal, 108 ug, single intranasal, CA solution, 108 μg/10 μL, mice
[13] = female, ICR, mouse, plasma, inhaled or intranasal, 108 ug, single intranasal, GA solution, 108 μg/10 μL, mice
[14] = female, ICR, mouse, plasma, inhaled or intranasal, 108 ug, single intranasal, HA solution, 108 μg/10 μL, mice
[15] = repeated (7 days) intranasal, 0.01 N HCl solution, 32.4 μg/10 μL, mice
[16] = single intranasal, CA solution, 108 μg/10 μL, mice
[17] = single intranasal, GA solution, 108 μg/10 μL, mice
[18] = single intranasal, HA solution, 108 μg/10 μL, mice
[19] = female, ICR, mouse, cerebellum, po, 6 mg/kg
[20] = female, ICR, mouse, cerebrum, po, 6 mg/kg
[21] = female, ICR, mouse, plasma, po, 6 mg/kg
[22] = single oral 6 mg/kg (166 μg/mouse), 0.01 N HCl solution, mice

NC(=O)N1c2ccccc2C=Cc2ccccc21 [carbamazepine, 5H-dibenzo[b,f]azepine-5-carboxamide, reference compound]
Papp at 30 min, 1 μM [1]: 47.8 ×10⁻⁶ cm/s

CSc1cc(C)nc(SC)c1NC(=O)CN1CCN(CCSc2nc3ccccc3[nH]2)CC1.Cl [K-604, 2-(4-(2-((1H-Benzo[d]imidazol-2-yl)thio)ethyl)piperazin-1-yl)-N-(6-methyl-2,4-bis(methylthio)pyridin-3-yl)acetamide hydrochloride]
Aqueous solubility [2]: 0.05 mg/mL | Papp at 30 min, 1 μM [1]: 21.9 ×10⁻⁶ cm/s | solubility at 24 h ([3]; CA aqueous solution (additive 7.7 mg, 0.04 M), pH 3, thermodynamic from solid): 10.8 mg/mL | solubility at 24 h ([3]; GA aqueous solution (additive 4 mg, 0.04 M), pH 3.6, thermodynamic from solid): 10.8 mg/mL | solubility at 24 h ([3]; HA aqueous solution (additive 5 mg), pH 3.8, thermodynamic from solid): 10.8 mg/mL | solubility ([3]; water, pH 6.8, water): 50 µg/mL | intranasal AUC BTE index [4, 6]: 211 | intranasal Cmax BTE index [4, 6]: 134 | drug concentration in plasma relative to cerebral tissue, fold higher ([4]; 5 to 45 min, repeated intranasal, 0.01 N HCl solution, 50 μL, mice): 6- to 10 fold | intranasal AUC BTE index [4, 7]: 133 | intranasal Cmax BTE index [4, 7]: 90 | intranasal AUC BTE index [4, 8]: 100 | intranasal Cmax BTE index [4, 8]: 61 | intranasal AUC BTE index [4, 9]: 137 | intranasal Cmax BTE index [4, 9]: 75 | Tmax ([4]; female, Crl:CD1 (ICR), mouse, cerebrum, inhaled or intranasal, 108 ug): 15 min | Tmax ([4]; female, Crl:CD1 (ICR), mouse, olfactory bulb, inhaled or intranasal, 108 ug): 15 min | Tmax ([4]; female, Crl:CD1 (ICR), mouse, plasma, inhaled or intranasal, 108 ug): 5 min | Cmax ([4]; female, Crl:CDI (ICR), mouse, cerebrum, inhaled or intranasal, 162 ug, cerebrum, repeated (7 days) intranasal, 0.01 N HCl solution, 162 μg/50 μL, mice): 83 ng/g | Cmax ([4]; female, Crl:CDI (ICR), mouse, cerebrum, inhaled or intranasal, 162 ug, cerebrum, single intranasal, 0.01 N HCl solution, 162 μg/50 μL, mice): 66 ng/g | Cmax ([4]; female, Crl:CDI (ICR), mouse, olfactory bulb, inhaled or intranasal, 162 ug, olfactory bulb, repeated (7 days) intranasal, 0.01 N HCl solution, 162 μg/50 μL, mice): 285 ng/g | Cmax ([4]; female, Crl:CDI (ICR), mouse, olfactory bulb, inhaled or intranasal, 162 ug, olfactory bulb, single intranasal, 0.01 N HCl solution, 162 μg/50 μL, mice): 406 ng/g | AUC ([4]; female, Crl:CDI (ICR), mouse, plasma, inhaled or intranasal, 162 ug): 345 ng·h/mL | Cmax ([4]; female, Crl:CDI (ICR), mouse, plasma, inhaled or intranasal, 162 ug, plasma, repeated (7 days) intranasal, 0.01 N HCl solution, 162 μg/50 μL, mice): 870 ng/mL | Cmax ([4]; female, Crl:CDI (ICR), mouse, plasma, inhaled or intranasal, 162 ug, plasma, single intranasal, 0.01 N HCl solution, 162 μg/50 μL, mice): 574 ng/mL | concentration at 5 min [4, 10]: 142 ng/mL | concentration at 15 min [4, 10]: 90 ng/mL | concentration at 30 min [4, 10]: 33 ng/mL | concentration at 45 min [4, 10]: 10 ng/mL | concentration at 5 min [4, 11]: 870 ng/mL | concentration at 15 min [4, 11]: 449 ng/mL | concentration at 30 min [4, 11]: 250 ng/mL | concentration at 45 min [4, 11]: 77 ng/mL | Tmax at 7 days ([4]; female, ICR, mouse, cerebrum, inhaled or intranasal): 5 min | Cmax at 7 days ([4]; female, ICR, mouse, cerebrum, inhaled or intranasal, repeated (7 days) intranasal, 0.01 N HCl solution, 32.4 μg/10 μL, mice): 21 ± 10 ng/g | Tmax ([4]; female, ICR, mouse, cerebrum, inhaled or intranasal, 108 ug): 5 min | Cmax ([4]; female, ICR, mouse, cerebrum, inhaled or intranasal, 108 ug, single intranasal, CA solution, 108 μg/10 μL, mice): 47 ± 29 ng/g | Cmax ([4]; female, ICR, mouse, cerebrum, inhaled or intranasal, 108 ug, single intranasal, GA solution, 108 μg/10 μL, mice): 32 ± 7 ng/g | Cmax ([4]; female, ICR, mouse, cerebrum, inhaled or intranasal, 108 ug, single intranasal, HA solution, 108 μg/10 μL, mice): 39 ± 11 ng/g | Tmax at 7 days ([4]; female, ICR, mouse, olfactory bulb, inhaled or intranasal): 5 min | Cmax at 7 days ([4]; female, ICR, mouse, olfactory bulb, inhaled or intranasal, repeated (7 days) intranasal, 0.01 N HCl solution, 32.4 μg/10 μL, mice): 156 ± 131 ng/g | Tmax ([4]; female, ICR, mouse, olfactory bulb, inhaled or intranasal, 108 ug): 5 min | Cmax ([4]; female, ICR, mouse, olfactory bulb, inhaled or intranasal, 108 ug, single intranasal, CA solution, 108 μg/10 μL, mice): 351 ± 112 ng/g | Cmax ([4]; female, ICR, mouse, olfactory bulb, inhaled or intranasal, 108 ug, single intranasal, GA solution, 108 μg/10 μL, mice): 160 ± 24 ng/g | Cmax ([4]; female, ICR, mouse, olfactory bulb, inhaled or intranasal, 108 ug, single intranasal, HA solution, 108 μg/10 μL, mice): 274 ± 100 ng/g | Tmax at 7 days ([4]; female, ICR, mouse, plasma, inhaled or intranasal): 5 min | Cmax at 7 days ([4]; female, ICR, mouse, plasma, inhaled or intranasal, repeated (7 days) intranasal, 0.01 N HCl solution, 32.4 μg/10 μL, mice): 146 ± 20 ng/mL | Tmax ([4]; female, ICR, mouse, plasma, inhaled or intranasal, 108 ug): 5 min | AUC(0-t) [4, 12]: 165 ng·h/mL | AUC(0-t) [4, 13]: 121 ng·h/mL | AUC(0-t) [4, 14]: 170 ng·h/mL | Cmax [4, 12]: 283 ± 121 ng/mL | Cmax [4, 13]: 217 ± 51 ng/mL | Cmax [4, 14]: 274 ± 30 ng/mL | half-life [4, 12]: 13.4 ± 1.7 min | half-life [4, 13]: 16.6 ± 2.9 min | half-life [4, 14]: 17.4 ± 2.1 min | AUC0–t, cerebrum [4, 15]: 367 ng·min/g and 367 ± 121 ng·min/g | AUC0–t, olfactory bulb [4, 15]: 2113 ± 1380 ng·min/g | AUC0–t, cerebrum [4, 16]: 772 ng·min/g and 772 ± 223 ng·min/g | AUC0–t, olfactory bulb [4, 16]: 3976 ± 642 ng·min/g | Tmax, plasma [4, 16]: 5 min | AUC0–t, cerebrum [4, 17]: 579 ng·min/g and 579 ± 137 ng·min/g | AUC0–t, olfactory bulb [4, 17]: 3406 ± 2127 ng·min/g | AUC0–t, cerebrum [4, 18]: 791 ng·min/g and 791 ± 160 ng·min/g | AUC0–t, olfactory bulb [4, 18]: 5200 ± 1036 ng·min/g | Cmax [5, 19]: 0.7 ± 0.3 ng/g | Tmax [5, 19]: 15 min | Cmax [5, 20]: 0.8 ± 0.4 ng/g | Tmax [5, 20]: 15 min | AUC(0-t) [5, 21]: 3.29 ng·h/mL | Cmax [5, 21]: 6.2 ± 3.1 ng/mL | Tmax [5, 21]: 15 min | AUC0–t, cerebellum [5, 22]: 5.4 ± 4.9 ng·min/g | AUC0–t, olfactory bulb [5, 22]: 0 ± 0 ng·min/g | AUC0–t, cerebrum ([5]; single oral 6 mg/kg (166 μg/mouse), 0.01 N HCl solution, mice, 6 mg/kg): 8.9 ng·min/g and 9 ng·min/g and 8.9 ± 7.4 ng·min/g | drug concentrations in cerebrum and cerebellum tissue at 60 min ([5]; single oral 6 mg/kg, mice, LLOQ 0.5 ng/g): less than the lower limit of quantification (LLOQ) | drug concentrations in the olfactory bulb tissue, all time points ([5]; single oral 6 mg/kg, mice, LLOQ 1 ng/g): less than the LLOQ
